SMILES strings stand for the structures. Read-outs that look alike come from different tables or passages of the source.

The test system of assay [1] is T-Rex 293 cell line SC3 cells lacking increased expression of androgen receptor protein. The assay can be described thus: Cellular growth inhibition, T-Rex 293 SC3 cells lacking increased androgen receptor expression (no doxycycline), CellTiter-Glo. It counts as cell-based. Particulars: T-Rex 293 SC3 cells lacking increased androgen receptor expression (not exposed to doxycycline), 72 hours, CellTiter-Glo; read-out: GI50. A digest of the protocol:
(§1)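 SC3, a T-Rex 293 clone with doxycycline-inducible wild-type androgen receptor, was seeded in phenol red-free DMEM with 10% charcoal-dextran FBS, with or without 10 ng/mL doxycycline. Compound added at 24 h (0.5% DMSO) for 72 h at 37° C. CellTiter-Glo 2.0 luminescence; GI50 from four-parameter fit.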
Background: Cellular ATP, detected with luciferase, serves as a proxy for viable cell number.

Assay [2] deals with T-Rex 293 cell line SC3 cells having increased expression of androgen receptor protein. Nature of the assay: Cellular growth inhibition, T-Rex 293 SC3 cells with increased androgen receptor expression (doxycycline), CellTiter-Glo. To be noted: T-Rex 293 SC3 cells with increased androgen receptor expression (exposed to 10 ng/mL doxycycline), 72 hours, CellTiter-Glo; read-out: GI50. It counts as cell-based. The method, boiled down:
as §1

The subject of assay [3] is T47D cells. The assay can be described thus: Cellular growth inhibition assay for T47D cells, CellTiter-Glo. Particulars: 72 hours treatment, CellTiter-Glo 2.0. It counts as cell-based, human. A digest of the protocol:
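Cells are plated at 3000/well and allowed 24 h before treatment. Test compound in medium containing 0.5% DMSO is then added, with DMSO-only wells as negative control, and plates are incubated 72 h at 37 °C. ATP luminescence (CellTiter-Glo 2.0) is then fitted to four parameters to derive GI50.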

Assay [4] concerns VCaP cells. The assay can be described thus: Cellular growth inhibition assay for VCaP cells, CellTiter-Glo. It counts as cell-based, human. Particulars: VCaP cells, 72 hours, CellTiter-Glo, read-out: GI50. The method, boiled down: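 GI50 values come from four-parameter curve fits of luminescence data normalized to a zero baseline. Compound, in medium with 0.5% DMSO, was added one day after plating and left for 72 h before CellTiter-Glo 2.0 addition.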

`Cn1cc(-c2cc(C(C)(C)O)ccc2Oc2ccc(CCOC3CCN(c4ccc(C(=O)N[C@H]5CC[C@H](Oc6ccc(C#N)c(Cl)c6)CC5)nn4)CC3)c(F)c2)c2cc[nH]c2c1=O` [I-132]: the GI50 (as a rule, the concentration giving 50% growth inhibition) in assay [1] is greater than 3000 nM; in assay [2], less than 500 nM; in assay [3] (Homo sapiens) it was less than 500 nM; in assay [4] (Homo sapiens) it was less than 500 nM.

Regarding `Cn1cc(-c2cc(C(C)(C)O)ccc2Oc2ccc(CCCCC3CN(c4ccc(C(=O)N[C@H]5CC[C@H](Oc6ccc(C#N)c(Cl)c6)CC5)nn4)C3)cc2)c2cc[nH]c2c1=O` [I-133], the 50% growth inhibitory concentration (GI50) in assay [1] is 500 to 1500 nM; in assay [2] it was less than 500 nM; in assay [3], less than 500 nM; in assay [4] it was less than 500 nM.

For the compound `Cn1cc(-c2cc(C(C)(C)O)ccc2Oc2ccc(CCC3C4CN(c5ccc(C(=O)N[C@H]6CC[C@H](Oc7ccc(C#N)c(Cl)c7)CC6)nn5)CC34)cc2)c2cc[nH]c2c1=O` (stereo partly shown) [I-134], the 50% growth inhibitory concentration (GI50) in assay [1] is greater than 3000 nM; in assay [2], less than 500 nM; in assay [3], less than 500 nM; in assay [4], less than 500 nM.

Take `Cn1cc(-c2cc(C(C)(C)O)ccc2Oc2ccc(CCCC3CCN(c4ccc(C(=O)N[C@H]5CC[C@H](Oc6ccc(C#N)c(Cl)c6)CC5)nn4)C3)cc2)c2cc[nH]c2c1=O` (stereo partly shown) [I-135]: the GI50 in assay [1], in assay [2], in assay [3] (Homo sapiens) and in assay [4] (Homo sapiens) was less than 500 nM each time.

As for `Cn1cc(-c2cc(C(C)(C)O)ccc2Oc2ccc(C3CC(N4CCN(c5ccc(C(=O)N[C@H]6CC[C@H](Oc7ccc(C#N)c(Cl)c7)CC6)nn5)CC4)C3)cc2)c2cc[nH]c2c1=O` (stereo partly shown) [I-136], the GI50 in assay [1], in assay [2], in assay [3] and in assay [4] was less than 500 nM each time.

Turning to `CN(C1CCN(c2ccc(C(=O)N[C@H]3CC[C@H](Oc4ccc(C#N)c(Cl)c4)CC3)nn2)CC1)C1CN(c2ccc(Oc3ccc(C(C)(C)O)cc3-c3cn(C)c(=O)c4[nH]ccc34)cc2)C1` [I-140], the GI50 in assay [1], in assay [2], in assay [3] (Homo sapiens) and in assay [4] (Homo sapiens) was less than 500 nM each time.

As for `CN(C1CCN(c2ccc(C(=O)N[C@H]3CC[C@H](Oc4ccc(C#N)c(Cl)c4)CC3)nn2)CC1)C1CN(c2cccc(Oc3ccc(C(C)(C)O)cc3-c3cn(C)c(=O)c4[nH]ccc34)c2F)C1` [I-142], the GI50 in assay [1], in assay [2], in assay [3] (Homo sapiens) and in assay [4] (Homo sapiens) was less than 500 nM in each case.

Turning to `CN(C1CN(c2ccc(Oc3ccc(C(C)(C)O)cc3-c3cn(C)c(=O)c4[nH]ccc34)cc2)C1)C1CN(c2ccc(C(=O)N[C@H]3CC[C@H](Oc4ccc(C#N)c(Cl)c4)CC3)nn2)C1` [I-143], the GI50 is greater than 3000 nM in assay [1], less than 500 nM in assay [2], less than 500 nM in assay [3] and less than 500 nM in assay [4].

For `Cn1cc(-c2cc(C(C)(C)O)ccc2Oc2ccc(N3CC4(CCN(c5ccc(C(=O)N[C@H]6CC[C@H](Oc7ccc(C#N)c(Cl)c7)CC6)nn5)CC4)C3)cc2)c2cc[nH]c2c1=O` [I-144], the concentration for 50% growth inhibition (GI50) in assay [1] was 500 to 1500 nM; in assay [2] it was less than 500 nM; in assay [3] it was less than 500 nM; in assay [4], less than 500 nM.

On to `Cn1cc(-c2cc(C(C)(C)O)ccc2Oc2ccc(N3CC(OC4CCN(c5ccc(C(=O)N[C@H]6CC[C@H](Oc7ccc(C#N)c(Cl)c7)CC6)nn5)CC4)C3)cc2)c2cc[nH]c2c1=O` [I-146], for which the GI50 in assay [1], in assay [2], in assay [3] (Homo sapiens) and in assay [4] (Homo sapiens) was less than 500 nM in each case.

As to `Cn1cc(-c2cc(C(C)(C)O)ccc2Oc2ccc(N3CC(CC4CCN(c5ccc(C(=O)N[C@H]6CC[C@H](Oc7ccc(C#N)c(Cl)c7)CC6)nn5)CC4)C3)cc2)c2cc[nH]c2c1=O` [I-147], the GI50 in assay [1] is greater than 3000 nM; in assay [2] it was less than 500 nM; in assay [3] (Homo sapiens) it was less than 500 nM; in assay [4] (Homo sapiens) it was less than 500 nM.

For `Cn1cc(-c2cc(C(C)(C)O)ccc2Oc2ccc(N3CC(CC4CN(c5ccc(C(=O)N[C@H]6CC[C@H](Oc7ccc(C#N)c(Cl)c7)CC6)nn5)C4)C3)cc2)c2cc[nH]c2c1=O` [I-149], the GI50 in assay [1], in assay [2], in assay [3] (Homo sapiens) and in assay [4] (Homo sapiens) was less than 500 nM in each case.

For `Cn1cc(-c2cc(C(C)(C)O)ccc2Oc2ccc(N3CC(OC4CN(c5ccc(C(=O)N[C@H]6CC[C@H](Oc7ccc(C#N)c(Cl)c7)CC6)nn5)C4)C3)cc2)c2cc[nH]c2c1=O` [I-150], the GI50 in assay [1], in assay [2], in assay [3] (Homo sapiens) and in assay [4] (Homo sapiens) was less than 500 nM throughout.

With `CCS(=O)(=O)Cc1ccc(Oc2cccc(OCCOC3CCN(c4ncc(C(=O)N[C@H]5CC[C@H](Oc6ccc(C#N)c(Cl)c6)CC5)cn4)CC3)c2)c(-c2cn(C)c(=O)c3[nH]ccc23)c1` [I-152], the 50% growth inhibitory concentration (GI50) in assay [1], in assay [2], in assay [3] (Homo sapiens) and in assay [4] (Homo sapiens) was less than 500 nM in each case.

Take `CCS(=O)(=O)Cc1ccc(Oc2ccc(CCCCC3CCN(c4ccc(C(=O)N[C@H]5CC[C@H](Oc6ccc(C#N)c(Cl)c6)CC5)nn4)CC3)cc2)c(-c2cn(C)c(=O)c3[nH]ccc23)c1` [I-157]: the GI50 in assay [1], in assay [2], in assay [3] and in assay [4] was less than 500 nM throughout.

Consider `CCS(=O)(=O)c1ccc(Oc2ccc(CCC3CCN(c4ccc(C(=O)N[C@H]5CC[C@H](Oc6ccc(C#N)c(Cl)c6)CC5)nn4)CC3)nn2)c(-c2cn(C)c(=O)c3[nH]ccc23)c1` [I-221], for which the GI50 in assay [1], in assay [2], in assay [3] and in assay [4] was less than 500 nM each time.

As to `CCS(=O)(=O)c1ccc(OC2CC(OC3CC4(CCN(c5ccc(C(=O)N[C@H]6CC[C@H](Oc7ccc(C#N)c(Cl)c7)CC6)nn5)CC4)C3)C2)c(-c2cn(C)c(=O)c3[nH]ccc23)c1` (stereo partly shown) [I-229], the GI50 in assay [1], in assay [2], in assay [3] and in assay [4] was less than 500 nM throughout.

For the compound `Cn1cc(-c2cc(S(C)(=O)=O)ccc2Oc2cccc(CCCC3CCN(c4ncc(C(=O)N[C@H]5CC[C@H](Oc6ccc(C#N)c(Cl)c6)CC5)cn4)CC3)c2)c2cc[nH]c2c1=O` [I-233], the GI50 in assay [1], in assay [2], in assay [3] and in assay [4] was less than 500 nM in each case.

In the case of `Cn1cc(-c2cc(N3CCCS3(=O)=O)ccc2Oc2ccc(CCC3CCN(c4ccc(C(=O)NC5CCC(Oc6ccc(C#N)c(Cl)c6)CC5)nn4)CC3)cc2)c2cc[nH]c2c1=O` (stereo not shown) [I-239, N-[4-(3-chloro-4-cyano-phenoxy)cyclohexyl]-6-[4-[2-[4-[4-(1,1-dioxo-1,2-thiazolidin-2-yl)-2-(6-methyl-7-oxo-1H-pyrrolo[2,3-c]pyridin-4-yl)phenoxy]phenyl]ethyl]-1-piperidyl]pyridazine-3-carboxamide], the GI50 in assay [1], in assay [2], in assay [3] (Homo sapiens) and in assay [4] (Homo sapiens) was less than 500 nM in each case.

Source of the values: patent publication US20250388575A1, “HETEROBIFUNCTIONAL COMPOUNDS AND METHODS OF TREATING DISEASE” (Halda Therapeutics OpCo, Inc., priority 2022, published 2025).
